Data as given in PMC1660542, “Structure-based discovery of inhibitors of the YycG histidine kinase: New chemical leads to combat Staphylococcus epidermidis infections” (BMC Microbiology, 2006).
In brackets after ≈: the same amount, converted by molar mass. Like-named read-outs stand apart in the source and are kept apart here.

Legend:
S. mutans 128 = test: MIC assay (broth dilution in tubes, CLSI); type: cell-based, Streptococcus mutans; conditions: for MIC: Streptococcus mutans, S. mutans 128, read-out: Minimal inhibitory concentration (MIC)
Source text: (§1) Staphylococcus epidermidis ATCC12228 and RP62A strains were purchased from the American Type Culture Collection (ATCC, Manassas, USA). Staphylococcus aureus ATCC29213, Escherichia coli ATCC25922 and Pseudomonas aeruginosa ATCC27853 were kindly provided by Dr. Bijie Hu at Zhongshan Hospital (Shanghai, China). S. epidermidis strains se527, se886, se847, seG203, Streptococcus pyogenes strain 144, and Streptococcus mutans strain 128 were all clinical isolates from Zhongshan Hospital and Huashan Hospital (Shanghai, China). If not stated otherwise, S. epidermidis and S. aureus strains were grown at 37°C in tryptic soy broth (TSB, Oxoid) containing 0.25% glucose, E. coli and P. aeruginosa strains were grown at 37°C in Luria-Bertani (LB, Oxoid).
(§2) MIC assays for the antibacterial activities of the compounds were performed according to the broth micro-dilution (in tubes) method of the Clinical and Laboratory Standards Institute (CLSI) of America. The Minimal Bactericidal Concentration (MBC) was obtained by subculturing 100 μl from each negative (no visible bacterial growth) tube from the MIC assay, onto substance-free Mueller-Hinton agar plates. The plates were incubated at 37°C for 24 hours, and the MBC was defined as the lowest concentration of substance which produced subcultures growing no more than five colonies on each plate.

SrrB' = test: Inhibition of SrrB' autophosphorylation (Kinase-Glo); type: biochemical, S. epidermidis; conditions: compound 50 μM, 4 μg protein, 3 μM ATP
S. epidermidis ATCC12228 [1] = test: MIC assay (broth dilution in tubes, CLSI); type: cell-based, Staphylococcus epidermidis; conditions: Staphylococcus epidermidis
Source text: as §1, §2

S. pyogenes 144 = test: MIC assay (broth dilution in tubes, CLSI); type: cell-based, Streptococcus pyogenes; conditions: for MIC: Streptococcus pyogenes, S. pyogenes 144, read-out: Minimal inhibitory concentration (MIC)
Source text: as §1, §2

S. aureus ATCC29213 = test: MIC assay (broth dilution in tubes, CLSI); type: cell-based, Staphylococcus aureus; conditions: for MIC: Staphylococcus aureus
Source text: as §1, §2

YycG' protein [2] = target: T1, YycG' protein (Staphylococcus epidermidis, UniProt Q8CU87); test: Inhibition of YycG' ATPase activity / autophosphorylation (Kinase-Glo Luminescent Kinase Assay); type: biochemical; conditions: for inhibition at 50 µM: read-out: Inhibition of YycG' phosphorylation (decrease of ATPase activity)
T1 construct: of YycG (370aa to 610aa) was amplified by PCR; His-tag (pET28a) (N); made in house; host or cells: E. coli BL21 (pET28a, pETYycG')
Protocol: The inhibitory activities of the compounds for the ATPase activity of the YycG' protein was measured using the Kinase-Glo™ Luminescent Kinase Assay (Promega, Madison, USA). Briefly, 4 μg YycG' protein was pre-incubated with a series of dilution of compounds in the reaction buffer (40 mM Tris [pH 7.5], 20 mM MgCl2, and 0.1 mg/ml BSA), at 25°C for 30 min. Then 3 μM ATP was added for another incubation of 30 min at 25°C, and Kinase-Glo™ Reagent was added to detect the rest amount of ATP, as recorded from luminescence measurements (RLU). In parallel, theYycG' protein with no addition of compounds was used as the control. The rate of inhibiting protein phosphorylation (Rp) by the compounds was calculated from equation 1:
Rp=RLU(YycG^′+compound+ATP+Reagent)−RLU(YycG^′+ATP+Reagent)/RLU(ATP+Reagent)−RLU(YycG^′+ATP+Reagent)×100% (1) MathType@MTEF@5@5@+=feaafiart1ev1aaatCvAUfKttLearuWrP9MDH5MBPbIqV92AaeXatLxBI9gBaebbnrfifHhDYfgasaacH8akY=wiFfYdH8Gipec8Eeeu0xXdbba9frFj0=OqFfea0dXdd9vqai=hGuQ8kuc9pgc9s8qqaq=dirpe0xb9q8qiLsFr0=vr0=vr0dc8meaabaqaciaacaGaaeqabaqabeGadaaakeaacqqGsbGudaWgaaWcbaGaeeiCaahabeaakiabg2da9maalaaabaGaeeOuaiLaeeitaWKaeeyvauLaeiikaGIaeeywaKLaeeyEaKNaee4yamMafe4raCKbauaacqGHRaWkcqqGJbWycqqGVbWBcqqGTbqBcqqGWbaCcqqGVbWBcqqG1bqDcqqGUbGBcqqGKbazcqGHRaWkcqqGbbqqcqqGubavcqqGqbaucqGHRaWkcqqGsbGucqqGLbqzcqqGHbqycqqGNbWzcqqGLbqzcqqGUbGBcqqG0baDcqGGPaqkcqGHsislcqqGsbGucqqGmbatcqqGvbqvcqGGOaakcqqGzbqwcqqG5bqEcqqGJbWycuqGhbWrgaqbaiabgUcaRiabbgeabjabbsfaujabbcfaqjabgUcaRiabbkfasjabbwgaLjabbggaHjabbEgaNjabbwgaLjabb6gaUjabbsha0jabcMcaPaqaaiabbkfasjabbYeamjabbwfavjabcIcaOiabbgeabjabbsfaujabbcfaqjabgUcaRiabbkfasjabbwgaLjabbggaHjabbEgaNjabbwgaLjabb6gaUjabbsha0jabcMcaPiabgkHiTiabbkfasjabbYeamjabbwfavjabcIcaOiabbMfazjabbMha5jabbogaJjqbbEeahzaafaGaey4kaSIaeeyqaeKaeeivaqLaeeiuaaLaey4kaSIaeeOuaiLaeeyzauMaeeyyaeMaee4zaCMaeeyzauMaeeOBa4MaeeiDaqNaeiykaKcaaiabgEna0kabigdaXiabicdaWiabicdaWiabcwcaLiaaxMaacaWLjaWaaeWaaeaacqaIXaqmaiaawIcacaGLPaaaaaa@A46C@
IC50 (the concentration of inhibition of 50% YycG' protein autophosphorylation) was obtained by using the Origin v7.0 software (OriginLab, Northampton, USA).

[3] = test system: healthy human erythrocytes; test: Erythrocyte hemolysis assay; type: cell-based;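 as to hemolysis: compounds tested at their MIC and at 4× MIC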
Protocol: (§3) Cytotoxicity of the antibacterial compounds on cultured Vero cell was measured by using the Cell Proliferation Kit I (MTT) (Roche, Indianapolis, USA) according to the manufacturer's protocol. Addition of DMSO (1%) in the medium produced a slight cytotoxicity on Vero cell, which could easily be corrected for. Each assay was performed in quadruplicate and repeated three times. The results were converted to percentage of the control (cells only treated with 1% DMSO) and CC50 (concentrations that produce a 50% cytotoxicity effect on Vero cell) was calculated by the Origin v7.0 software (OriginLab, Northampton, USA). Hemolytic activities of the compounds were determined by using healthy human erythrocytes. The erythrocytes were washed three times in sterile saline and resuspended to 5% prior to the assay. […] Cells without compound treatment and cells with 1% Triton-100 treatment were used as 0% and 100% hemolysis controls, respectively. The cell suspensions were incubated for 1 hour at 37°C and centrifuged at 1000×g for 10 min. Volumes of 100 μl supernatants were transferred to another sterile plate and hemoglobin release from the cells was determined at 570 nm. […] The hemolysis assays were repeated twice.

[4] = Erythrocyte hemolysis assay; type: cell-based, human; conditions: human, 1 hour, 37°C;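 as to hemolysis: compounds tested at their MIC and at 4× MIC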
Protocol: as §3

S. epidermidis ATCC12228 [5] = test: Minimal bactericidal concentration (MBC) assay; type: cell-based; conditions: Staphylococcus epidermidis
Protocol: as §2

S. epidermidis RP62A [6] = test: Minimal bactericidal concentration (MBC) assay; type: cell-based; conditions: Staphylococcus epidermidis; S. epidermidis RP62A; read-out: Minimal bactericidal concentration (MBC)
Protocol: as §2

S. epidermidis RP62A [7] = test: MIC assay (broth dilution in tubes, CLSI); type: cell-based; conditions: Staphylococcus epidermidis, read-out: Minimal inhibitory concentration (MIC)
Source text: as §1, §2

[8] = Cytotoxicity on Vero cell (MTT, Cell Proliferation Kit I); type: cell-based, African Green-monkey; conditions: African green monkey, highest concentration tested 200 μM
Protocol: as §3

Vero cell = test: as above; type: cell-based, African Green-monkey; conditions: highest concentration tested 200 μM
Protocol: as §3

YycG' protein [9] = target: T1, YycG' protein; test: Compound-YycG' protein binding assay (SPR, Biacore 3000); conditions: SPR
Source text: The YycG' fragment containing the cytoplasmic signal domains (the HATPase_c and HisKA domain, see Figure 1A) of YycG (370aa to 610aa) was amplified by PCR (with the chromosomal DNA of S. epidermidis ATCC12228 as the template, and (5' […] 3') and (5' […] 3') as the primers. Subsequently, the fragment was digested with BamHI and XholI (TAKARA, Japan) and ligated into the corresponding sites of pET28a (Promega, Madison, USA) to obtain pETYycG'. The expressed YycG' protein was purified with the ProBond™ Purification System (Invitrogen, California, USA), according to the manufacturer's protocol.
The in vitro binding affinities of the inhibitor compounds to the YycG' protein was determined using surface plasmon resonance (SPR) biosensor technology on the dual flow cell Biacore 3000 instrument (Biacore AB, Uppsala, Sweden) with a similar method as described in our previous study. Immobilization of the YycG' protein to the hydrophilic carboxymethylated dextran matrix of the sensor chip CM5 (Biacore) was carried out by the standard primary amine coupling reaction. […] The equilibrium constants (KD) evaluating the protein-ligand binding affinity were determined by the steady state or the kinetic state affinity fitting model encoded in the Biacore analysis software.

[10] = ATCC12228, Table 2, as tested on S. epidermidis ATCC 12228, read-out: MICs
[11] = S. epidermidis ATCC12228 (non-biofilm-forming strain), read-out: Minimal inhibitory concentration (MIC)
[12] = S. aureus ATCC29213, read-out: Minimal inhibitory concentration (MIC)
[13] = 4 μg YycG' protein, 3 μM ATP, read-out: IC50 for YycG'
[14] = compound 50 μM, 4 μg protein, 3 μM ATP
[15] = erythrocytes (5% suspension), at 4 × MIC (number in parenthesis)
[16] = erythrocytes (5% suspension), at MIC for S. epidermidis ATCC12228
[17] = S. epidermidis RP62A (biofilm-forming strain)

T1 sequence (Q8CU87 370-610): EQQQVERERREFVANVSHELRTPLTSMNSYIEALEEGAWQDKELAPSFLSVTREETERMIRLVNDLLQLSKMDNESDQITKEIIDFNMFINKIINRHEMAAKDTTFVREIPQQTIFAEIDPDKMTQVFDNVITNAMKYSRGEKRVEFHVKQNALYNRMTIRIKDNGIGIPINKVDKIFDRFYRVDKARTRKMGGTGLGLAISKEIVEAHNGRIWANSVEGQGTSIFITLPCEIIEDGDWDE

Structure (SMILES) | MIC (S. mutans 128) [µM] | Inhibition of SrrB' phosphorylation (SrrB') [%] | MIC (S. epidermidis ATCC12228 [1]; [10]) [µM] | MIC (S. epidermidis ATCC12228 [1]; [11]) [µM] | Inhibitory effect against Streptococcus pyogenes (S. pyogenes 144) | MIC (S. pyogenes 144) [µM] | Inhibitory effect against S. aureus (S. aureus ATCC29213) | MIC (S. aureus ATCC29213; [12]) [µM] | IC50 (YycG' protein [2]; [13]) [µM] | inhibition at 50 µM (YycG' protein [2]; [14]) [%] | hemolysis at 1 h [4, 15] [%] | hemolysis at 1 h [4, 16] [%] | MBC (S. epidermidis ATCC12228 [5]) [µM] | MBC (S. epidermidis RP62A [6]) [µM] | MIC (S. epidermidis RP62A [7]; [17]) [µM] | also measured
CCc1ccccc1N=C1SC(=Cc2ccc(OCC(O)O)c(OC)c2)C(=O)N1c1ccccc1CC [Compound 2] | 100 (≈ 51.9 µg/mL) | 3 | 25 (≈ 13 µg/mL) | 25 (≈ 13 µg/mL) | effective | 100 (≈ 51.9 µg/mL) | effective | 25 (≈ 13 µg/mL) | 29 | 61 | ~6 | 2.3 | 100 (≈ 51.9 µg/mL) | 100 (≈ 51.9 µg/mL) | 25 (≈ 13 µg/mL) | Inhibitory effect against Streptococcus mutans (S. mutans 128): effective; Hemolysis ([3]; at 4 × MIC (number in parenthesis), 1 hour, 37°C): 6.1%; Hemolytic activity ([3]; at the highest concentration (200 μM)): ~ 16 % of the zero control
CC(=O)Nc1ccccc1C(=O)Nc1ccc2cc3ccc(NC(=O)c4ccccc4NC(C)=O)cc3nc2c1 [Compound 3] | > 200 | 5 | 12.5 (≈ 6.64 µg/mL) | 12.5 (≈ 6.64 µg/mL) | inhibited the growth | 25 (≈ 13.3 µg/mL) | inhibited the growth | 100 (≈ 53.2 µg/mL) | 15 | 70 | 0.5 | < 0.1 | 50 (≈ 26.6 µg/mL) | 100 (≈ 53.2 µg/mL) | 25 (≈ 13.3 µg/mL) | CC50 ([8]; Vero cells): < 200 µM; CC50 (Vero cell): 152 µM
CCOc1cccc(N2C(=O)/C(=C\c3ccc(OCc4ccc(F)cc4)c(Br)c3)C(=O)NC2=S)c1 [Compound 6] | – | – | – | – | – | – | – | – | – | – | – | – | – | – | – | Binding to the YycG' protein (YycG' protein [9]): only bound very poorly; MIC (S. epidermidis ATCC12228 [1]; ATCC12228, read-out: MICs): 100 µM (≈ 55.5 µg/mL); MIC (S. epidermidis ATCC12228 [1]; ATCC12228, read-out: Minimal inhibitory concentration (MIC)): 100 µM (≈ 55.5 µg/mL); MIC (S. aureus ATCC29213; ATCC29213, read-out: Minimal inhibitory concentration (MIC)): > 200 µM; IC50 (YycG' protein [2]): > 200 µM; inhibition at 50 µM (YycG' protein [2]): ~7%; CC50 [8]: > 200 µM; hemolysis at 1 h ([4]; at 4 × MIC (number in parenthesis)): 2.3%; hemolysis at 1 h ([4]; at MIC for S. epidermidis ATCC12228): 1.1%; MIC (S. epidermidis RP62A [7]; RP62A): 100 µM (≈ 55.5 µg/mL)
